Here are results for 30 compounds from patent US4007184A, “Substituted alkyl esters of quinoxaline-di-N-oxide-2-carboxylic acid” (Pfizer Inc., priority 1975, dated 1977).

Assay [1] concerns Escherechia coli. The assay is described as follows: in vivo antibacterial activity against acute infections in mice, oral. Conditions: for responders at 200 mg/kg / responders at 50 mg/kg: Escherichia coli, in Mus musculus, po, 96 h; for responders at 200 mg/kg: read-out: percent animals which survived, E. coli, *200 mg./kg., mice, oral, 200 mg./kg. (footnote *); for responders at 50 mg/kg: read-out: percent animals which survived, E. coli, **50 mg./kg., mice, oral, 50 mg./kg.; for percent animals which survived, E. coli 25 / percent animals which survived, E. coli 100: mice, oral; for percent animals which survived, E. coli 25: 25 mg./kg.; for percent animals which survived, E. coli 100: 100 mg./kg.
Experimental: (§1) The in vivo efficacy of the compounds of the instant invention is determined by the antibacterial activity against acute infections in mice. The acute experimental infections are produced by the intraperitoneal inoculation of standardized culture suspended in either 5% hog gastric mucin or broth.
(§2) Stock cultures of test organisms are normally maintained on slants or in liquid medium. When not routinely used they are maintained at refrigerator temperature or in a lyophilized state. When it becomes to use a culture in animal protection tests the culture is suspended in a volume of saline or broth, and the density of the suspension is measured by a photo-electric colorimeter. From this stock, ten-fold dilutions are prepared. Each dilution is inoculated into a series of mice in order to determine the LD100, the LD100 being the lowest concentration of organisms required to produce 100 percent deaths. […] This means that we are using about 10 LD100 or 10 times the minimum dose required to kill mice. Such a test would also include the use of control animals which receive an inoculum of 10^^-4, 10^^-5 and possibly 10^^-6. These dilutions are included as a check on possible variation in virulence which can occur. Having previously determined, through the virulence titration, that 10^^-4 was the maximum dilution that will kill we naturally expect these animals to die, usually within 24 hours.
(§3) Each organism has its own standardized inoculum level. Some, such as Staphylococcus, may be used at 10^^-1, while others like Streptococcus require weekly animal passage in order to maintain virulence.
(§4) When evaluating an antibiotic for its effectiveness after a single dose, the dose is usually administered 0.5 hour after inoculating the mice with the lethal concentration of organisms. In this type of treatment schedule surviving mice are usually held for 4 days after the treatment and the percent alive is calculated.

The nature of assay [2]: growth promotion in swine. Type of assay: in vivo. Conditions: 50 g./ton of feed, 28 days; for Weight Gain Index: control = 100. As for the experimental part:
In practice, growth promotion is determined in swine, for instance, by the method wherein young pigs from 5-6 weeks of age and averaging 21.5 lbs. initial body weight are maintained on an ad libitum consumption of water and feed formulation consisting of ground yellow corn (58.1%), soybean meal (19.6%), alfalfa meal (2.0%), dried skim milk (5.0%), dried whey (10.0%), stabilized animal fat (2.5%), limestone (0.6%), dicalcium phosphate (1.1%), iodized salt (0.5%), vitamin premix PPM-5 (0.5%), quadruple delamix (0.05%), and zinc carbonate (156 g./2000 lbs. mix). The pigs are divided into groups of 32 pigs each and are held for a pre-experimental period of 3 days prior to starting the experiment. The quinoxaline-di-N-oxides of the present invention are added to the feed at a ratio of 50 g. of compound per ton of feed. After 28 days the efficacy of said added compounds on growth promotion is measured by a comparison of the growth in terms of weight gain of the treated animals with the untreated control group, which is arbitrarily assigned a weight gain Index of 100. For example, if a compound effects a growth 23% greater than the control group (with an Index of 100) it would be assigned a value of 123, etc.
Employing the previously described procedure for determining growth promotion in animals, the following quinoxaline-di-N-oxides were tested at 50 g./ton of feed in swine for a period of 28 days and provided the following results: […]

The subject of the next assay is Staphylococcus aureus. In words: in vitro activity (MIC), two-fold serial dilution technique. Type of assay: cell-based. Conditions: 37° C., approximately 24 hours, method gives concentrations as mcg. of compound per ml., read-out: MIC (Minimal Inhibitory Concentration) S. aureus.
The subject of the next assay is Streptococcus pyogenes. In words: in vivo antibacterial activity against acute infections in mice, oral. Conditions: for percent animals which survived, S. pyogenes 50: 50 mg./kg.; for percent animals which survived, S. pyogenes 200: 200 mg./kg.
In assay [3] the test system is Escherechia coli. The assay is described as follows: in vitro activity (MIC), two-fold serial dilution technique. The assay is classed as cell-based. Conditions: Escherichia coli, 37° C., approximately 24 hours, method gives concentrations as mcg. of compound per ml., read-out: MIC (Minimal Inhibitory Concentration) E. coli.
The subject of assay [4] is Salmonella cholerasuis var. kunzendorf. In words: protection against systemic challenge infection in swine. Conditions: intramuscular, day 10, placebo 83. Type of assay: in vivo. The procedure:
Young, 6-8 week old pigs are conditioned for 14 days in isolation rooms and maintained during the entire study on a basal ration consisting of ground yellow corn (78.4%), soybean meal (15%), alfalfa meal (2%), meat bone scraps (2.5%), limestone (0.4%), dicalcium phosphate (0.65%), iodized salt (0.5%), Vitamin pre-mix PPM-5 (0.5%), quadruple delamix (0.05%) and zinc carbonate (7.8 g./100 lbs. mix). All the pigs, which are divided into groups of six, are inoculated on day 0 with 4 ml. (approximately 2.0 × 10^8 organisms) of the stock inoculating suspension. Treatment with the quinoxaline-di-N-oxides of the present invention is carried out on day 0 and day 1 by intramuscular injection at 12 hour intervals at doses of 2.5 and 5 mg./kg. On day 10 the percent mortality in each group is calculated.

Molecules are shown by their SMILES. Converted amounts (≈) assume the structure as drawn. Structures can show the parent of a compound that is named as a salt.

Experimental for Streptococcus pyogenes: as §1, §2, §3, §4

As to `Cc1c(C(=O)OCCOC(=O)C[N+](C)(C)C)[n+]([O-])c2ccccc2[n+]1[O-]`, in the assay on Escherechia coli [1], the responders at 200 mg/kg was 90% and the responders at 50 mg/kg stood at 40%.
In the case of `CCCC(=O)OCCOC(=O)c1c(C)[n+]([O-])c2ccccc2[n+]1[O-]`, in the assay with Escherechia coli [1], the responders at 200 mg/kg stood at 90% and the responders at 50 mg/kg was 80%.
Regarding `CC(=O)OCCOC(=O)c1c(C)[n+]([O-])c2ccccc2[n+]1[O-]` [drawing 103], in assay [2], the “% Growth Over Control” value worked out at 53% and the “Weight Gain Index” value is on record as 153.
As to `Cc1c(C(=O)OCCOC(=O)OCC(C)C)[n+]([O-])c2ccccc2[n+]1[O-]`, the responders at 200 mg/kg with Escherechia coli [1] was determined as 90%.
Regarding `Cc1c(C(=O)OCCN(C)C)[n+]([O-])c2ccccc2[n+]1[O-].Cl` [H (CH2)2 N(CH3)2.HCl, 3-Methyl-2-quinoxalinecarboxylic acid, 2-(dimethylamino)ethyl ester, 1,4-dioxide hydrochloride], the MIC with Staphylococcus aureus stood at 100 µg/mL. For the same compound, in the assay with Streptococcus pyogenes, the “percent animals which survived, S. pyogenes 50” value was 20% and the “percent animals which survived, S. pyogenes 200” value is reported as 70%. In the assay with Escherechia coli [1], the “percent animals which survived, E. coli 25” value amounted to 40% and the “percent animals which survived, E. coli 100” value was 100%. In addition, the MIC in the assay with Escherechia coli [3] stood at 6.25 µg/mL.
For `CCN(C)CCOC(=O)c1c(C)[n+]([O-])c2ccccc2[n+]1[O-].Cl` [H (CH2)2 N(CH3)C2 H5.HCl, 3-Methyl-2-quinoxalinecarboxylic acid, 2-(methylethylamino)-ethyl ester, 1,4-dioxide hydrochloride], in the assay on Staphylococcus aureus, the MIC worked out at 100 µg/mL. In addition, in the assay with Streptococcus pyogenes, the “percent animals which survived, S. pyogenes 50” value stood at 60% and the “percent animals which survived, S. pyogenes 200” value is 100%. For the same compound, in the assay on Escherechia coli [1], the “percent animals which survived, E. coli 25” value was 0% and the “percent animals which survived, E. coli 100” value was 80%. The MIC with Escherechia coli [3] was 12.5 µg/mL.
Consider `CC(=O)OCCOC(=O)c1c(C)[n+]([O-])c2ccccc2[n+]1[O-]` [3-Methyl-2-quinoxalinecarboxylic acid, 2-(acetyloxy)ethyl ester, 1,4-dioxide], for which the “% Mortality” value in assay [4] (2.5 mg./kg. × 4 at 12 hour intervals) came to 67%; in assay [4] (5.0 mg./kg. × 4 at 12 hour intervals), 17%.
As for `CCNC(=O)OCCOC(=O)c1c(C)[n+]([O-])c2ccccc2[n+]1[O-]` [drawing 89], in the assay on Escherechia coli [1], the responders at 200 mg/kg was 30% and the responders at 50 mg/kg stood at 40%.
Turning to `CCCCCCCC(=O)OCCOC(=O)c1c(C)[n+]([O-])c2ccccc2[n+]1[O-]`, in the assay with Escherechia coli [1], the responders at 200 mg/kg amounted to 100% and the responders at 50 mg/kg is 50%.
For the compound `CCCCCC(=O)OCCOC(=O)c1c(C)[n+]([O-])c2ccccc2[n+]1[O-]`, in the assay with Escherechia coli [1], the responders at 200 mg/kg was determined as 90% and the responders at 50 mg/kg was determined as 0%.
As to `CCN(CC)CC(C)OC(=O)c1c(C)[n+]([O-])c2ccccc2[n+]1[O-]` (centres unmarked) [H CH(CH3)CH2 N(C2 H5)2.HCl], in the assay on Streptococcus pyogenes, the “percent animals which survived, S. pyogenes 50” value was determined as 20% and the “percent animals which survived, S. pyogenes 200” value is given as 80%. For the same compound, in the assay on Escherechia coli [1], the “percent animals which survived, E. coli 25” value worked out at 0% and the “percent animals which survived, E. coli 100” value was found to be 60%.
Turning to `CC(=O)OCCOC(=O)c1c(C)[n+]([O-])c2ccccc2[n+]1[O-]` [drawing 85], in the assay on Streptococcus pyogenes, the “percent animals which survived, S. pyogenes 50” value was 80% and the “percent animals which survived, S. pyogenes 200” value is listed as 80%. Further, in the assay on Escherechia coli [1], the “percent animals which survived, E. coli 25” value amounted to 80% and the “percent animals which survived, E. coli 100” value was 100%.
Regarding `Cc1c(C(=O)OCCOC(=O)CCC(=O)O)[n+]([O-])c2ccccc2[n+]1[O-]` [drawing 100], in the assay on Escherechia coli [1], the responders at 200 mg/kg is 100% and the responders at 50 mg/kg was found to be 80%.
Turning to `CCC(=O)OCCOC(=O)c1c(C)[n+]([O-])c2ccccc2[n+]1[O-]`, in the assay on Escherechia coli [1], the responders at 200 mg/kg came out at 90% and the responders at 50 mg/kg came to 80%.
As to `CC(=O)OCCOC(=O)c1c(C)[n+]([O-])c2ccccc2[n+]1[O-]` [drawing 80], the MIC in the assay with Staphylococcus aureus turned out to be 12.5 µg/mL (≈ 40.8 µM); in the assay on Escherechia coli [3] it was 50 µg/mL (≈ 163 µM).
`Cc1c(C(=O)OCCOC(=O)CCl)[n+]([O-])c2ccccc2[n+]1[O-]`: in the assay with Escherechia coli [1], the responders at 200 mg/kg is 100% and the responders at 50 mg/kg came to 100%.
Turning to `CCOC(=O)OCCOC(=O)c1c(C)[n+]([O-])c2ccccc2[n+]1[O-]`, the “percent animals which survived, E. coli 100” value with Escherechia coli [1] came to 30%.
As for `CCN(CC)CCCOC(=O)c1c(C)[n+]([O-])c2ccccc2[n+]1[O-].Cl` [H (CH2)3 N(C2 H5)2.HCl, 3-Methyl-2-quinoxalinecarboxylic acid, 3-(diethylamino)propyl ester, 1,4-dioxide hydrochloride], the MIC in the assay with Staphylococcus aureus came out at 200 µg/mL; in the assay with Escherechia coli [3], 12.5 µg/mL.
For the compound `Cc1c(C(=O)OCCO)[n+]([O-])c2ccccc2[n+]1[O-]` [H (CH2)2 OH, 3-Methyl-2-quinoxalinecarboxylic acid, 2-hydroxyethyl ester, 1,4-dioxide], in the assay with Streptococcus pyogenes, the “percent animals which survived, S. pyogenes 50” value came to 60% and the “percent animals which survived, S. pyogenes 200” value amounted to 100%. In the assay on Escherechia coli [1], the “percent animals which survived, E. coli 25” value was found to be 80% and the “percent animals which survived, E. coli 100” value is recorded as 100%.
Turning to `Cc1c(C(=O)OCCN)[n+]([O-])c2ccccc2[n+]1[O-]` [H (CH2)2 NH2.HCl, 3-Methyl-2-quinoxalinacarboxylic acid, 2-aminoethyl ester, 1,4-dioxide hydrochloride], in assay [2], the “% Growth Over Control” value worked out at 39% and the “Weight Gain Index” value was determined as 139. In the assay with Streptococcus pyogenes, the “percent animals which survived, S. pyogenes 50” value came to 30% and the “percent animals which survived, S. pyogenes 200” value is 90%. For the same compound, the “percent animals which survived, E. coli 25” value in the assay with Escherechia coli [1] is listed as 100%.
Consider `CCNC(=O)OCCOC(=O)c1c(C)[n+]([O-])c2ccccc2[n+]1[O-]` [drawing 82], for which the MIC with Staphylococcus aureus was 25 µg/mL (≈ 74.6 µM); in the assay on Escherechia coli [3] it was above 200 µg/mL.
With `Cc1c(C(=O)OCCOC(=O)CCCC(=O)O)[n+]([O-])c2ccccc2[n+]1[O-]`, in the assay on Escherechia coli [1], the responders at 200 mg/kg came out at 90% and the responders at 50 mg/kg was 50%.
Turning to `CCCCCCCCCC(=O)OCCOC(=O)c1c(C)[n+]([O-])c2ccccc2[n+]1[O-]`, in the assay on Escherechia coli [1], the responders at 200 mg/kg was determined as 100% and the responders at 50 mg/kg was 70%.
Consider `CC1(C)S[C@@H]2[C@H](NC(=O)Cc3ccccc3)C(=O)N2[C@H]1C(=O)O` [Benzylpenicillin (K Salt), Benzylpenicillin, reference compound], for which the MIC was 0.156 µg/mL in the assay with Staphylococcus aureus and above 100 µg/mL in the assay on Escherechia coli [3].
Consider `CCN(CC)CCOC(=O)c1c(C)[n+]([O-])c2ccccc2[n+]1[O-].Cl` [H (CH2)2 N(C2 H5)2.HCl, 3-Methyl-2-quinoxalinecarboxylic acid, 2-(diethylamino)ethyl ester, 1,4-dioxide hydrochloride], for which the MIC with Staphylococcus aureus was determined as 100 µg/mL; with Escherechia coli [3], 12.5 µg/mL.
With `CCCCC(=O)OCCOC(=O)c1c(C)[n+]([O-])c2ccccc2[n+]1[O-]`, in the assay with Escherechia coli [1], the responders at 200 mg/kg stood at 100% and the responders at 50 mg/kg is 60%.
As to `Cc1c(C(=O)OCCOC(=O)CCC(=O)O)[n+]([O-])c2ccccc2[n+]1[O-]` [drawing 83], the MIC is 200 µg/mL (≈ 549 µM) in the assay with Staphylococcus aureus and above 200 µg/mL in the assay on Escherechia coli [3].
`CCCCCCC(=O)OCCOC(=O)c1c(C)[n+]([O-])c2ccccc2[n+]1[O-]`: in the assay with Escherechia coli [1], the responders at 200 mg/kg amounted to 100% and the responders at 50 mg/kg turned out to be 10%.
Take `Cc1c(C(=O)OCCCN(C)C)[n+]([O-])c2ccccc2[n+]1[O-].Cl` [H (CH2)3 N(CH3)2.HCl, 3-Methyl-2-quinoxalinecarboxylic acid, 3-(dimethylamino)propyl ester, 1,4-dioxide hydrochloride]: in the assay on Streptococcus pyogenes, the “percent animals which survived, S. pyogenes 50” value turned out to be 20% and the “percent animals which survived, S. pyogenes 200” value was found to be 100%. For the same compound, in the assay on Escherechia coli [1], the “percent animals which survived, E. coli 25” value turned out to be 40% and the “percent animals which survived, E. coli 100” value stood at 80%.
On to `Cc1c(C(=O)OC(C)CN(C)C)[n+]([O-])c2ccccc2[n+]1[O-].Cl` (centres unmarked) [H CH(CH3)CH2 N(CH3)2.HCl, 3-Methyl-2-quinoxalinecarboxylic acid, 1-methyl-2-(dimethyl-amino)ethyl ester, 1,4-dioxide hydrochloride], for which the MIC turned out to be 200 µg/mL with Staphylococcus aureus and 100 µg/mL with Escherechia coli [3].
